Columns and labels:
HIV LTR luciferase = experiment: Nuclear microinjection of synthetic Tat or AcTat with HIV LTR luciferase reporter into HeLa cells; format: cell-based; settings: for basal HIV promoter activity / transcriptional activity of AcTat (transactivation of the HIV promoter): TSA 400 nM or nicotinamide 5 mM, four hours (FIG. 6C)
Protocol: Subconfluent MEFs (70%) were grown on Cellocate coverslips (Eppendorf, Westbury, N.Y.), and nuclear microinjections were performed at room temperature with an automated injection system (Eppendorf Micromanipulator 5171 together with Eppendorf Transjector 5246). Samples were prepared as a 20 μl injection mix containing the HIV LTR luciferase reporter or 5×UAS luciferase (each 100 ng/μl), RSV-Tat (10 ng/μl) or Gal4-VP16 (50 ng/μl), CMV-CyclinT1 (100 ng/μl), CMV-SIRT1 (100 or 300 ng/μl) together with CMV-GFP (50 ng/μl) in sterile water. Six hours after microinjection, cells were examined under a Nikon Eclipse TE300 inverted fluorescent microscope to determine the number of GFP-positive cells, washed in cold phosphate buffer, and stored at −70° C. for luciferase assays (Promega). In HeLa cells, synthetic Tat or AcTat proteins (each 30 or 100 ng/μl) were co-injected with the wildtype or mutant HIV LTR luciferase reporters (each 100 ng/μl) together with CMV-GFP (50 ng/μl) and harvested four hours after injection. Cells were treated immediately after injection with 5,6-dichlorobenzimidazole riboside (DRB; 10 or 50 μM; Sigma), TSA (400 nM), or nicotinamide (5 mM). Microinjections in siRNA-treated cells were performed 48 hours after siRNA transfection.

[1] = system: HIV-R7/E-/GFP (HIVNL4-3 with GFP in place of nef); experiment: Single-cycle HIV infection of Jurkat T cells, GFP expression by flow cytometry; format: cell-based; settings: 1 μM, 36 hours (FIG. 7D left)
Protocol: (§1) The HIV molecular clone (HIV-R7/E^−/GFP) containing the GFP open reading frame in place of the nef gene and a frameshift mutation in the env gene as well as the method to generate pseudotyped viral particles with VSV-G was previously described. Jordan et al. (2003) Embo J 22: 1868-1877. The number of infective particles per ml was established by infecting 3×10^5 Jurkat cells with different amounts of viral suspension. The titer of the viral stock was measured by flow cytometry analysis of GFP expression 48 hours after infection. The pHR′-EF-1α/GFP construct is a minimal nonreplicative HIV-1 genome containing a heterologous promoter (EF-1α) driving GFP expression. Naldini et al. (1996) Science 272: 263-267. […]. Zufferey et al. (1997) Nat Biotechnol 15: 871-875. All vectors for the production of HIV-based lentiviral vectors were provided by D. Trono, University of Geneva, Switzerland. Jurkat T cells were incubated overnight with HIV-R7/E^−/GFP or pHR′-EF-1α/GFP viral particles at a theoretical multiplicity of infection (m.o.i.) of 0.5 in 24-well plates. […] Viral infection was monitored 36 hours later by flow cytometry analysis using a Calibur FACScan (Becton Dickinson).

[2] = system: Tat-dependent HIV transcription; experiment: Tat transactivation of HIV LTR luciferase reporter in transfected HeLa cells treated with HR73; format: cell-based; settings: at ~1 μM, 8 hours, dose-dependent (FIG. 7C left)
Protocol: (§2) In co-transfection experiments, human CMV-SIRT1 or CMV-SIRT1H363Y (600 ng) was co-transfected into HeLa cells plated in six-well plates with the HIV LTR luciferase reporter (200 ng) or the LTRΔNF-kB-luciferase reporter (200 ng) and increasing amounts of RSV-Tat (0 ng, 2 ng, 20 ng, and 200 ng) using the lipofectamine reagents (Invitrogen). In the control experiment, RSV-Tat was replaced by RSV luciferase (200 ng), and the HIV LTR luciferase construct was replaced by the HIV LTR CAT reporter. […] The RSV-luciferase construct was used as described above. […] Cells were harvested 8 hr later and processed for luciferase assays.

p53 = p53 acetylation in cells; format: cell-based; settings: 1 μM
pHR'-EF-1α/GFP = experiment: HIV-based lentiviral vector expressing GFP from EF-1α promoter in Jurkat T cells (control); format: cell-based; settings: 1 μM, 36 hours (FIG. 7D right)
Protocol: as §1

RSV LTR = experiment: RSV luciferase control in transfected HeLa cells; format: cell-based; settings: 1 μM (FIG. 7C right)
Protocol: as §2

SIRT1 = biological target: T1, SIRT1 (Homo sapiens, UniProt Q96EB6); experiment: In vitro Tat deacetylation assay with immunoprecipitated SIRT1; format: biochemical; settings: AcTat, NAD+ 1 mM; nicotinamide 5 mM, TSA 400 nM; western blot (FIG. 2B)
T1 construct: made in house; host or cells: HEK 293 cells (transient transfection, anti-FLAG M2 agarose immunoprecipitation)
T1 sequence (Q96EB6 1-747): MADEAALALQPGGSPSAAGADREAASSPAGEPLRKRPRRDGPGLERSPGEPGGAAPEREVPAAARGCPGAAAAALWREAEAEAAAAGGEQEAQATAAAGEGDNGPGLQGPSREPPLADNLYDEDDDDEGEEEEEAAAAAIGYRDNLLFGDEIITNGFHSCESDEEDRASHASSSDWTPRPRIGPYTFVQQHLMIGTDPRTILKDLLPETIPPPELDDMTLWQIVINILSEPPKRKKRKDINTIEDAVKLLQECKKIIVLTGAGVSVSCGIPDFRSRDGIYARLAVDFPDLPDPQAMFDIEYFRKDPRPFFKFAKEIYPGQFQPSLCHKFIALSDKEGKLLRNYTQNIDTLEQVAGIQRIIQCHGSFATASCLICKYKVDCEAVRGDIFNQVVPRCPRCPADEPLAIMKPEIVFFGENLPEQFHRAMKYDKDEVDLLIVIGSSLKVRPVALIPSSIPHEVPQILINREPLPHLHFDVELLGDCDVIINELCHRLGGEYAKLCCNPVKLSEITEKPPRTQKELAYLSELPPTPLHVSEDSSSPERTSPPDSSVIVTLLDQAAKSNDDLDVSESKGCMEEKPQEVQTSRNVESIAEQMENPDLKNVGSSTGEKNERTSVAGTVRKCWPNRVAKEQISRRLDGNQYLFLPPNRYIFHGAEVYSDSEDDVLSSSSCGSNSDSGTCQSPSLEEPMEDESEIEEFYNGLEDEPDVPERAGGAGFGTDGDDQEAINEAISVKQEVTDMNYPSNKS
Protocol: Human SIRT1-7 FLAG-tagged plasmids were transfected in 293 cells with lipofectamine reagent (Invitrogen). Cells were lysed 24 hours after transfection with lysis buffer (50 mM Tris-Hcl, pH 7.5, 0.5 mM EDTA, 0.5% NP40, 150 mM NaCl) in the presence of protease inhibitors (Roche Molecular Biochemicals, Indianapolis, Ind.). Equal amounts of total proteins were immunoprecipitated with α-FLAG (anti-FLAG antibody) coupled to M2 agarose beads (Sigma, St Louis, Mo.), for 2 hours at 4° C. Immunoprecipitated material was washed twice with immunoprecipitation (IP) buffer and one time with SIRT deacetylation buffer (50 mM Tris-HCl pH 9, 4 mM MgCl2, 0.2 mM DTT). The beads were resuspended in 100 μl SIRT deacetylation buffer containing 1 μg synthetic Tat (72 amino acids) carrying an N-terminal biotin label and an acetyl group at position 50. Kaehlcke et al. (2003), supra. Reactions containing TSA (400 nM, WACO Bioproducts, Richmond, Va.) or nicotinamide (5 mM, Sigma) were preincubated for 10 min at room temperature. […] Reactions were stopped by the addition of SDS loading buffer, boiled, and after brief centrifugation, analyzed by western blotting with rabbit α-AcTat antibodies (Kaehlcke et al. (2003), supra) or horseradish peroxidase-conjugated streptavidin (Jackson Immunoresearch Laboratories, West Grove, Pa.). SIRT1-7 proteins were detected with polyclonal α-FLAG antibodies (Sigma).

SMILES | basal HIV promoter activity (HIV LTR luciferase) | transcriptional activity of AcTat (transactivation of the HIV promoter) (HIV LTR luciferase) | effect on SIRT1-mediated deacetylation of Tat (SIRT1) | other results
OC[C@H]1O[C@@H](n2cnc3cc(Cl)c(Cl)cc32)[C@H](O)[C@@H]1O [DRB, 5,6-dichlorobenzimidazole riboside] |  |  |  | transactivation by Tat and AcTat (HIV LTR luciferase; Tat or AcTat 30 ng/μl, DRB 10 or 50 μM, four hours (FIG. 6B)): inhibited in a dose-dependent manner
O=C1Oc2ccc3cc(Br)ccc3c2CC1c1ccccc1 (stereo not drawn) [HR73] |  |  |  | reduction of HIV gene expression as measured by GFP expression [1]: 5 fold; suppression of Tat-dependent HIV transcription [2]: 3 fold; acetylation of p53 (p53): induced hyperacetylation; GFP expression from the EF-1α promoter (pHR'-EF-1α/GFP): not affected; activity of the RSV LTR (RSV LTR): did not suppress
CC(/C=C/C(=O)NO)=C\[C@@H](C)C(=O)c1ccc(N(C)C)cc1 [TSA] | enhanced | enhanced | had no effect | 
NC(=O)c1cccnc1 [nicotinamide] | stimulating | blocked | completely inhibited | 

From patent US7485416B2, “Screening methods for the identification of agents that inhibit SIRT1 Tat deacetylase activity” (The Regents of the University of California, priority 2003, dated 2009)
